Columns and labels:
Assay type in all cases: biochemical
Settings in all cases: recombinant enzyme, 20° C., activity level classes
[1] = molecular target: T1, hALDH1a3 (Homo sapiens, UniProt P47895); assay: Aldh1a3 enzyme inhibition assay (resorufin fluorescence), human enzyme
T1 construct: made in house; host or cells: E. coli BL21-DE3
T1 sequence (P47895 1-512): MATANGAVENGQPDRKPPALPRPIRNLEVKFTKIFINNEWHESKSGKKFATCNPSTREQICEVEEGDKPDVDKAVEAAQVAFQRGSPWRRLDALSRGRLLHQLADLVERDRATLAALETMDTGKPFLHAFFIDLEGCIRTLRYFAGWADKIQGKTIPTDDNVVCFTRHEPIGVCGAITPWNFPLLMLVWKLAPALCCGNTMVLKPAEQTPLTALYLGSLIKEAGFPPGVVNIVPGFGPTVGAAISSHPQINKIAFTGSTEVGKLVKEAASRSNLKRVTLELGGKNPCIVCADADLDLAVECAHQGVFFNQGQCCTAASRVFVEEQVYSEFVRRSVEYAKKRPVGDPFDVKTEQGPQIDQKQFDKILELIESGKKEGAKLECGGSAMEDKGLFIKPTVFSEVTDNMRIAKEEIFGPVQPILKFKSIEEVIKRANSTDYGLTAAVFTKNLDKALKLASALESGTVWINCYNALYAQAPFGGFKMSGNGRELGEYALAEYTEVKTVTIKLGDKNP

[2] = molecular target: T2, hALDH1a2 (Homo sapiens, UniProt O94788); assay: Aldh1a2 enzyme inhibition assay (resorufin fluorescence), human enzyme
T2 construct: made in house; host or cells: E. coli BL21-DE3
T2 sequence (O94788 1-518): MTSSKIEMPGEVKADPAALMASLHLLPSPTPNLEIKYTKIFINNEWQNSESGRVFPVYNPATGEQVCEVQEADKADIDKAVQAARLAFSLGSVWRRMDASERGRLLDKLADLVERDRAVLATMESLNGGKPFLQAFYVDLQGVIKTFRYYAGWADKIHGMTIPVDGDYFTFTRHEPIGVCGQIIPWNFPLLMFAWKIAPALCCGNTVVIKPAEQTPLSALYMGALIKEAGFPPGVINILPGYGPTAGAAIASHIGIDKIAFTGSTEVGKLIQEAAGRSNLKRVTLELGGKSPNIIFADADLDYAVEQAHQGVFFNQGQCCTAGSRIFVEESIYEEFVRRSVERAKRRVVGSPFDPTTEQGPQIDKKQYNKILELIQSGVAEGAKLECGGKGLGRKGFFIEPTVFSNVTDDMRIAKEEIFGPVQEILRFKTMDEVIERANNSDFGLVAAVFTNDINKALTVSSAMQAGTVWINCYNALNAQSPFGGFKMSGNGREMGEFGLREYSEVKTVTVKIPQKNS
Source text: (§1) Recombinant enzyme and inhibitor added immediately before assay. Reaction rate measured by resorufln fluorescence.

[3] = molecular target: T3, mALDH1a3 (Mus musculus, UniProt Q9JHW9); assay: Aldh1a3 enzyme inhibition assay (resorufin fluorescence), mouse enzyme
T3 construct: made in house; host or cells: E. coli BL21-DE3
T3 sequence (Q9JHW9 1-512): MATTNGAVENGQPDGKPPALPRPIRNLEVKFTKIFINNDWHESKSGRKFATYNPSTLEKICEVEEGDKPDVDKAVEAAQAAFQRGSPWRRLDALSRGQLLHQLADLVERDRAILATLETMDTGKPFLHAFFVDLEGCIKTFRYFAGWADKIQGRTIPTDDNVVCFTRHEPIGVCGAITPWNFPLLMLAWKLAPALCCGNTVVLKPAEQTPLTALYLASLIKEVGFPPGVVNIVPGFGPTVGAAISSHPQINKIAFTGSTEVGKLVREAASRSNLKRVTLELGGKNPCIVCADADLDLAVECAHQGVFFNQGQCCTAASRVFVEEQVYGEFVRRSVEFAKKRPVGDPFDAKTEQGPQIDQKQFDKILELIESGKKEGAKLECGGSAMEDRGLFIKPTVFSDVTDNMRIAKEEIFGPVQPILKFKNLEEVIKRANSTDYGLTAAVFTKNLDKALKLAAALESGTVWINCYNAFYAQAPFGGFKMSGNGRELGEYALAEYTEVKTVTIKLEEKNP
Source text: Recombinant enzyme and inhibitor added immediately before assay. Reaction rate measured by resorufin fluorescence.

[4] = molecular target: T4, mALDH1a2 (Mus musculus, UniProt Q62148); assay: Aldh1a2 enzyme inhibition assay (resorufin fluorescence), mouse enzyme
T4 construct: made in house; host or cells: E. coli BL21-DE3
T4 sequence (Q62148 1-518): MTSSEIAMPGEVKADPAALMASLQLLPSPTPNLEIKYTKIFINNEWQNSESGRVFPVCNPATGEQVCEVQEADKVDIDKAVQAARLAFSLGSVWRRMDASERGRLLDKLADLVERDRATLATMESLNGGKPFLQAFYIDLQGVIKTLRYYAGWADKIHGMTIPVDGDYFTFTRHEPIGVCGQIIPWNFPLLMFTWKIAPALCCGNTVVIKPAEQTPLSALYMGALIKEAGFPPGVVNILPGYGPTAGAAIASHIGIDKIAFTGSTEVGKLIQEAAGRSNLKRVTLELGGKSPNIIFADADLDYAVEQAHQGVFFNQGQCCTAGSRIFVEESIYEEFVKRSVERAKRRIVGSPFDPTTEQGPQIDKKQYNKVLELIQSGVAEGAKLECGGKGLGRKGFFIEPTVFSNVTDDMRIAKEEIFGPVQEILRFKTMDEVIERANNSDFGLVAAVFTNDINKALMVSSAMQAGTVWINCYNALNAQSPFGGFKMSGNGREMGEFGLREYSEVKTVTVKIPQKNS
Source text: as §1

SMILES	IC50 [1] [µM]	IC50 [2] [µM]	IC50 [3] [µM]	IC50 [4] [µM]	mAldh1a3 IC50 [3]	hAldh1a3 IC50 [1]	hAldh1a2 IC50 [2]	mAldh1a2 IC50 [4]
Cc1cc(NC(=O)c2ccncc2-c2ccccc2)cc2c1NC(=O)CC2 [Compound 1, N-(8-methyl-2-oxo-1,2,3,4-tetrahydroquinolin-6-yl)-3-phenylisonicotinamide]	1 to 5	0.1 to 0.25	1 to 5	0.1 to 0.25	–	–	–	–
Cc1cc(NC(=O)c2ccncc2-c2ccccc2F)cc2c1NC(=O)CC2 [Compound 2, 3-(2-fluorophenyl)-N-(8-methyl-2-oxo-1,2,3,4-tetrahydroquinolin-6-yl)isonicotinamide]	1 to 5	0.1 to 0.25	–	0.25 to 1	No activity	–	–	–
Cc1cc(NC(=O)c2ccncc2-c2cccc(F)c2)cc2c1NC(=O)CC2 [Compound 3, 3-(3-fluorophenyl)-N-(8-methyl-2-oxo-1,2,3,4-tetrahydroquinolin-6-yl)isonicotinamide]	1 to 5	0.25 to 1	–	0.25 to 1	No activity	–	–	–
Cc1cc(NC(=O)c2scnc2-c2cccc(F)c2)cc2c1NC(=O)CC2 [Compound 4, 4-(3-fluorophenyl)-N-(8-methyl-2-oxo-1,2,3,4-tetrahydroquinolin-6-yl)thiazole-5-carboxamide]	0.1 to 0.25	0.25 to 1	0.25 to 1	0.25 to 1	–	–	–	–
O=C1CCc2cc(NC(=O)c3scnc3-c3cccc(F)c3)c(F)cc2N1 [Compound 5, N-(7-fluoro-2-oxo-1,2,3,4-tetrahydroquinolin-6-yl)-4-(3-fluorophenyl)thiazole-5-carboxamide]	< 0.1	1 to 5	0.1 to 0.25	1 to 5	–	–	–	–
O=C1CCc2cc(NC(=O)c3scnc3-c3cccc(F)c3)ccc2N1 [Compound 6, 4-(3-fluorophenyl)-N-(2-oxo-1,2,3,4-tetrahydroquinolin-6-yl)thiazole-5-carboxamide]	< 0.1	1 to 5	0.1 to 0.25	1 to 5	–	–	–	–
Cc1cc(NC(=O)c2ccncc2CC(F)(F)F)cc2c1NC(=O)CS2 [Compound 7]	0.1 to 0.25	0.25 to 1	0.1 to 0.25	0.25 to 1	–	–	–	–
Cc1cc(OCCNC(=O)c2cccc(F)c2)cc2c1NC(=O)CC2 [Compound 8, 3-fluoro-N-(2-((8-methyl-2-oxo-1,2,3,4-tetrahydroquinolin-6-yl)oxy)ethyl)benzamide]	–	–	–	–	No activity	No activity	No activity	No activity
Cc1cc(OCCN(C)C(=O)c2cccc(F)c2)cc2c1NC(=O)CC2 [Compound 9, 3-fluoro-N-methyl-N-(2-((8-methyl-2-oxo-1,2,3,4-tetrahydroquinolin-6-yl)oxy)ethyl)benzamide]	> 5	1 to 5	> 5	1 to 5	–	–	–	–
Cc1cc(OCCN(C)Cc2cccc(F)c2)cc2c1NC(=O)CC2 [Compound 10]	1 to 5	1 to 5	1 to 5	1 to 5	–	–	–	–
Cc1cccc(-c2cnccc2C(=O)Nc2cc(C)c3c(c2)CCC(=O)N3)c1 [Compound 11, N-(8-methyl-2-oxo-1,2,3,4-tetrahydroquinolin-6-yl)-3-(m-tolyl)isonicotinamide]	–	1 to 5	–	1 to 5	No activity	No activity	–	–
Cc1cc(NC(=O)c2ccncc2-c2cccc(C#N)c2)cc2c1NC(=O)CC2 [Compound 12]	–	1 to 5	–	> 5	No activity	No activity	–	–
Cc1ccc(-c2cnccc2C(=O)Nc2cc(C)c3c(c2)CCC(=O)N3)cc1 [Compound 13]	–	> 5	–	> 5	No activity	No activity	–	–
Cc1cc(NC(=O)c2ccncc2-c2ccc(C#N)cc2)cc2c1NC(=O)CC2 [Compound 14]	–	> 5	–	> 5	No activity	No activity	–	–
O=C1CCc2cc(NC(=O)c3ccccc3-c3cccc(F)c3)ccc2N1 [Compound 22]	> 5	> 5	–	> 5	No activity	–	–	–

Continued, values first:

IC50 [1] [µM]	IC50 [2] [µM]	IC50 [3] [µM]	IC50 [4] [µM]	mAldh1a3 IC50 [3]	hAldh1a3 IC50 [1]	hAldh1a2 IC50 [2]	mAldh1a2 IC50 [4]	SMILES
–	> 5	–	> 5	No activity	No activity	–	–	Cc1ccccc1-c1cnccc1C(=O)Nc1cc(C)c2c(c1)CCC(=O)N2 [Compound 15, N-(8-methyl-2-oxo-1,2,3,4-tetrahydroquinolin-6-yl)-3-(o-tolyl)isonicotinamide]
–	> 5	–	> 5	No activity	No activity	–	–	Cc1cc(NC(=O)c2ccncc2-c2ccccc2C#N)cc2c1NC(=O)CC2 [Compound 16]
–	1 to 5	–	1 to 5	No activity	No activity	–	–	Cc1cc(NC(=O)c2ccncc2-c2cccc(O)c2)cc2c1NC(=O)CC2 [Compound 18]
–	1 to 5	–	1 to 5	No activity	No activity	–	–	Cc1cc(NC(=O)c2ccncc2-c2ccc(O)cc2)cc2c1NC(=O)CC2 [Compound 19]
1 to 5	< 0.1	1 to 5	0.1 to 0.25	–	–	–	–	O=C1CCc2cc(NC(=O)c3ccncc3-c3ccccc3)cc(Cl)c2N1 [Compound 20]
> 5	1 to 5	–	1 to 5	No activity	–	–	–	O=C1CCc2cc(NC(=O)c3ccncc3-c3ccccc3)ccc2N1 [Compound 21]
> 5	1 to 5	> 5	1 to 5	–	–	–	–	Cc1cc(NC(=O)c2ccccc2-c2cccc(F)c2)cc2c1NC(=O)CC2 [Compound 23]
1 to 5	0.1 to 0.25	> 5	0.25 to 1	–	–	–	–	O=C1CCc2cc(NC(=O)c3ccccc3-c3cccc(F)c3)cc(Cl)c2N1 [Compound 24]
–	0.25 to 1	–	1 to 5	–	–	–	–	Cc1c(F)c(NC(=O)c2scnc2CC(F)(F)F)cc2c1NC(=O)CC2 [Compound 78]
–	0.25 to 1	–	0.25 to 1	–	–	–	–	CCc1ncsc1C(=O)Nc1cc2c(c(C)c1F)NC(=O)CC2 [Compound 79]
–	0.1 to 0.25	–	0.25 to 1	–	–	–	–	Cc1c(Cl)c(NC(=O)c2scnc2CC(F)(F)F)cc2c1NC(=O)CC2 [Compound 80]
–	0.25 to 1	–	0.25 to 1	–	–	–	–	CCc1ncsc1C(=O)Nc1cc2c(c(C)c1Cl)NC(=O)CC2 [Compound 81]
–	< 0.1	–	< 0.1	–	–	–	–	CCc1ncsc1C(=O)Nc1cc(Cl)c2c(c1)CCC(=O)N2 [Compound 83]

From patent publication US20260151383A1, “HETEROCYCLIC COMPOUNDS AND USES THEREOF” (KayoThera Inc., priority 2022, published 2026)
